Columns and labels:
[1] = tested on: human iPS cell-derived myocardial cells; experiment: Heart rate of myocardial cells by MEA extracellular potential, serum-free culture medium without additive; format: cell-based; conditions: no pretreatment
Experimental: (§1) Reference Example 1: Method and results of evaluating effect on heart rate in a case where muscarinic receptor agonist (carbachol) is added to serum-free culture medium Human iPS cell-derived myocardial cells (iCell myocardial cells 2.0, manufactured by FUJIFILM Cellular Dynamics, Inc.) in a frozen state were thawed, suspended in a thawing culture medium (iCell myocardial cell thawing culture medium, manufactured by FUJIFILM Cellular Dynamics, Inc.), and then seeded at a cell density of 50,000 cells per well on a MEA plate (Cyto View MEA 48, manufactured by Axion BioSystems, Inc.). The seeding density of myocardial cells in the vicinity of the electrode was 2,736 cells/mm^2. […]
(§2) On the day of measurement, the MEA plate on which the human iPS cell-derived myocardial cells were cultured was placed in an MEA system (Maestro Pro, manufactured by Axion BioSystems, Inc.), and the extracellular potential was measured after 20 minutes (medium control, carbachol concentration: 0 μmol/L). Subsequently, 0.01 μmol/L of carbachol (manufactured by Tokyo Chemical Industry Co., Ltd.) was added to the MEA plate, and then the extracellular potential was measured after 20 minutes from the addition. Similarly, carbachol was added to give concentrations of 0.1 μmol/L, 1 μmol/L, and 10 μmol/L, and then the extracellular potential was measured at each concentration after 20 minutes from the addition. […]

[2] = tested on: human iPS cell-derived myocardial cells; experiment: Heart rate of myocardial cells by MEA, maintenance culture medium containing serum; format: cell-based
Description: as §1, with “Comparative” for “Reference”, “decrease in” for “effect on”, “by” for “in a case where”, “using maintenance” for “is added to serum-free”, “2,798” for “2,736”
as §2, with “concentration.” for “concentration after 20 minutes from the addition.”

CN1[C@@H]2CC[C@H]1C[C@@H](OC(=O)C(CO)c1ccccc1)C2 (stereo partly shown) [atropine]
increase in heart rate ([1]; atropine 0.01-1 μmol/L): No clear increase in heart rate
increase in heart rate ([2]; atropine 0.01-1 μmol/L): No clear increase in heart rate

C[N+](C)(C)CCOC(N)=O [carbachol]
decrease in heart rate ([1]; carbachol 0.01-10 μmol/L, 20 minutes after each addition, vs medium control): up to 15%
decrease in heart rate ([2]; carbachol 0.01-10 μmol/L): No clear decrease in heart rate

Source: patent publication US20250354979A1, “DRUG EVALUATION METHOD, REAGENT, AND KIT” (FUJIFILM Corporation, priority 2023, published 2025)
